# Key:
# PAR2-RLuc8/βARR2-YFP = target: T1, PAR2-RLuc8/βARR2-YFP (Homo sapiens, UniProt P55085); assay: BRET assay of βARR2 recruitment in DRG neurons; assay type: cell-based; conditions: mouse DRG neurons
# T1 construct: expressed in transfected cells; host or cells: mouse (C57BL/6) DRG neurons, nucleofection
# T1 sequence (P55085 26-397): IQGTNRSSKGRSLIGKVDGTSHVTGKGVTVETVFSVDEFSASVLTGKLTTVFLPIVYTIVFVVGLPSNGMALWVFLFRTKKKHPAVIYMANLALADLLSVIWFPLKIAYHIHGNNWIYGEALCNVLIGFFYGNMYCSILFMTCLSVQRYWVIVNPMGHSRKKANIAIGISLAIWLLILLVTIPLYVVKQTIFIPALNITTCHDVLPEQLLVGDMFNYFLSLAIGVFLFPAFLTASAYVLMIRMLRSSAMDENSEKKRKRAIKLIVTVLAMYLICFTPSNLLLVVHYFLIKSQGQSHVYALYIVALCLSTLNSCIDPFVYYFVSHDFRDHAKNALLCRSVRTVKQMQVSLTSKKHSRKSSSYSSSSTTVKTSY
# Protocol: To assess endocytosis of PAR2 in nociceptors, mouse (m) PAR2-GFP was transfected in to mouse DRG neurons. In vehicle-treated neurons, mPAR2-GFP was detected at the plasma membrane and in intracellular compartments that may correspond to stores of PAR2 in the Golgi apparatus (FIG. 4A) (Jensen D. D., et al. J Biol Chem. 2016, 291(21): 11285-11299). Trypsin, but not NE or CS (100 nM, 30 min), induced mPAR2-GFP endocytosis (FIG. 4A, B). Dy4, but not Dy4 inact, inhibited trypsin-induced endocytosis of mPAR2-GFP (FIG. 4C). To determine whether PAR2 recruits βARRs, which mediate endocytosis, Bioluminescence Resonance Energy Transfer (BRET) sensors were expressed for PAR2-RLuc8 (donor) and βARR2-YFP (acceptor) in mouse DRG neurons. Trypsin, but not NE or CS, increased PAR2-RLuc8/βARR2-YFP BRET (FIG. 4D).
# DRG were collected from C57BL/6 mice and Sprague-Dawley rats (all levels). […]
# Mouse DRG neurons were equilibrated in HBSS-HEPES (30 min, 37° C.), and incubated with the Renilla luciferase substrate coelenterazine h (NanoLight Technologies) (5 μM, 5 min). BRET ratios were measured at 475±30 nm and 535±30 nm using a CLARIOstar Monochronometer Microplate Reader (BMG LabTech) before and after challenge with trypsin (10 nM), NE (100 nM) or CS (100 nM). Data are presented as a BRET ratio, calculated as the ratio of YFP to RLuc8 signals, and normalized to the baseline average. […]
# PKC and ERK activity = assay: FRET assays of compartmentalized PKC and ERK in DRG neurons; assay type: cell-based, rat
# Protocol: To determine whether trypsin causes PAR2-dependent activation of PKC and ERK, which respectively mediate initial and persistent trypsin-induced hyperexcitability of nociceptors, genetically-encoded Förster Resonance Energy Transfer (FRET) biosensors were expressed in neurons. […] Trypsin (10 or 100 nM) activated PKC at the plasma membrane but not in the cytosol (FIG. 4E-G), and activated ERK in the cytosol and nucleus (FIG. 4H-J). The PAR2 antagonist I-343 (10 μM) inhibited trypsin-induced activation of PKC and ERK, whereas the PAR1 antagonist SCH530348 (100 nM) had no effect (FIG. 4F, I). At the end of experiments, neurons were challenged with the positive controls phorbol 12,13-dibutyrate (PDBu) for EKAR biosensors or PDBu plus phosphatase inhibitor mixture-2 for CKAR biosensors, to ensure that the response of the biosensor was not saturated.
# DRG were collected from C57BL/6 mice and Sprague-Dawley rats (all levels). DRG were incubated with collagenase IV (2 mg/ml) and dispase II (1 mg/ml) for 30 min (mice) and 45 min (rats) at 37° C. DRG were dispersed by trituration with a fire-polished Pasteur pipette. Dissociated neurons were transfected with mPAR2-GFP (1 μg), the FRET biosensors CytoEKAR, NucEKAR, pmCKAR or CytoCKAR (all […]), or with the BRET biosensors PAR2-RLuc8 (125 ng) and βARR2-FYP (475 ng) using the Lonza 4D-Nucleofector X unit according to the manufacturer's instructions. Neurons were plated on laminin- (0.004 mg/ml) and poly-L-Lysine- (0.1 mg/ml) coated glass coverslips for confocal microscopy, on ViewPlate-96 plates (PerkinElmer) for FRET assays, or on CulturPlates (PerkinElmer) for BRET assays. Neurons were maintained in Dulbecco's modified Eagle medium (DMEM) containing 10% fetal bovine serum (FBS), antibiotic-antimitotic, and N1 supplement for 48 h before study.
# Rat DRG neurons expressing FRET biosensors were serum-restricted (0.5% FBS overnight), and equilibrated in HBSS-HEPES (10 mM HEPES, pH 7.4, 30 min, 37° C.). FRET was analyzed using an Operetta CLS High-Content Imaging System (PerkinElmer) or an INCell Analyzer 2000 G E Healthcare Life Sciences). For CFP/YFP emission ratio analysis, cells were sequentially excited using a CFP filter (410-430 nm) with emission measured using YFP (520-560 nm) and CFP (460-500 nm) filters. Cells were imaged at 1 or 2 min intervals. Baseline was measured, neurons were challenged with trypsin (10 or 100 nM) or vehicle, and responses recorded for a further 30 min. Neurons were then challenged with phorbol 12,13-dibutyrate (PDBu, 200 nM, 10 min) for EKAR biosensors or PDBu (200 nM) and phosphatase inhibitor cocktail-2 (SigmaAldrich, 10 min) for CKAR biosensors. Data were analyzed using Harmony 4.1 or Image J 1.51 software. Images taken were aligned, cells were selected based on diameter, and fluorescence intensity was calculated for both FRET and CFP channels. Background intensity was subtracted and the FRET ratio was determined as the change in the FRET/donor (EKAR) or donor/FRET (CKAR) emission ratio relative to the baseline for each cell (F/Fo). Cells with >5% changes in F/F0 after PDBu stimulation were selected for analysis. Neurons were incubated with I-343 (10 μM), SCH530348 (100 nM) or vehicle (30 min, 37° C. preincubation and inclusion throughout).
# [1] = trypsin 10 or 100 nM, rat DRG neurons
Compound,PAR2-RLuc8/βARR2-YFP BRET (PAR2-RLuc8/βARR2-YFP),ERK activity in the cytosol and nucleus (PKC and ERK activity; [1]),PKC activity at the plasma membrane (PKC and ERK activity; [1]),PKC activity in the cytosol (PKC and ERK activity; [1]),"trypsin-induced activation of PKC and ERK (PKC and ERK activity; I-343 10 μM, SCH530348 100 nM)"
trypsin,increased,activated,activated,not,
NE: protease (elastase) activating PAR2 by biased mechanisms,not,,,,
"Cc1nc(C(=O)N2CCN(C(=O)c3cn4nc(-c5ccc(F)cc5)cc(C(C)(C)C)c4n3)C(C)(C)C2)n[nH]1 [Compound I-343, (8-(tert-butyl)-6-(4-fluorophenyl)imidazo[1,2-b]pyridazin-2-yl)(2,2-dimethyl-4-(5-methyl-1H-1,2,4-triazole-3-carbonyl)piperazin-1-yl)methanone]",,,,,inhibited

# From patent US20200383985A1, “Inhibitors of Protease Activated Receptor-2” (Endosome Therapeutics, Inc., priority 2017, published 2020)
